Here are results for one compound from ChEMBL document CHEMBL2073903, “The expression of P-glycoprotein does influence the distribution of novel fluorescent compounds in solid tumour models” (Br J Cancer, 2003).

This data set addresses ATP-dependent translocase ABCB1 (Homo sapiens, UniProt P08183). The data set can be described thus: TP_TRANSPORTER: ATPase assay in reconstituted P-gp. Type of data set: functional.

The structures appear in SMILES notation.

Sequence of ATP-dependent translocase ABCB1 (P08183 whole entry): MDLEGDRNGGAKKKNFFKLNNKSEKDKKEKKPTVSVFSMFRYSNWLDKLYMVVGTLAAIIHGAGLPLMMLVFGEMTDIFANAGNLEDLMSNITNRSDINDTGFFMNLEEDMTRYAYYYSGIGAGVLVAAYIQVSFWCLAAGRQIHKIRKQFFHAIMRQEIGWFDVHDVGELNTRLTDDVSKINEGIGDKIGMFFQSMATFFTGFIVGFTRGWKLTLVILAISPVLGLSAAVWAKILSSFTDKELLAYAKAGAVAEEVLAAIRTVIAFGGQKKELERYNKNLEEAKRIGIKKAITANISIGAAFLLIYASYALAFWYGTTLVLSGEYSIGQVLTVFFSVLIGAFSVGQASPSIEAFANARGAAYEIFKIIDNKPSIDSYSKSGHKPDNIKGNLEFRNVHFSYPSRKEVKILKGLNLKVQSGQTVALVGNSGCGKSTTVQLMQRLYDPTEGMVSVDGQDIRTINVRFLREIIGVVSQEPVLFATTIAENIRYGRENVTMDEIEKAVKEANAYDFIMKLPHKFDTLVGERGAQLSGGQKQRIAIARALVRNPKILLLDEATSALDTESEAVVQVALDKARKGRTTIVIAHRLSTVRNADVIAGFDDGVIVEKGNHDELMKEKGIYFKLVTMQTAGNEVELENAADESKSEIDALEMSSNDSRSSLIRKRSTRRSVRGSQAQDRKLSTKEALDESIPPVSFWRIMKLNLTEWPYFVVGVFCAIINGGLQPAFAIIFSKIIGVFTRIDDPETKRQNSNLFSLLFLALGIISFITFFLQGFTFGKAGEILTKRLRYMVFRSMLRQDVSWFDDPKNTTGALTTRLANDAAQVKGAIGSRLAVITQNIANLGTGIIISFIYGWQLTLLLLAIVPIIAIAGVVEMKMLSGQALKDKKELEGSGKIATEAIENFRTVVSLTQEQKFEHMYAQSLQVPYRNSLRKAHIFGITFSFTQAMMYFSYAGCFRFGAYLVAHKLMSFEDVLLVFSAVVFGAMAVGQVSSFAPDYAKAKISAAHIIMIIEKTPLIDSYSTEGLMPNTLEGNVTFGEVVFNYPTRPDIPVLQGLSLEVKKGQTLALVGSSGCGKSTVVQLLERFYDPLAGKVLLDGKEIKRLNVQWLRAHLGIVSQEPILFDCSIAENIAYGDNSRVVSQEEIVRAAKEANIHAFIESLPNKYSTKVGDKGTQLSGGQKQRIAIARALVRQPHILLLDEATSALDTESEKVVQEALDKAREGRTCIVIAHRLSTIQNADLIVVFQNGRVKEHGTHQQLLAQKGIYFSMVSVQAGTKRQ

For the compound `CC(=O)O[C@H]1C(=O)[C@@]2(C)C([C@H](OC(=O)c3ccccc3)[C@]3(O)C[C@H](OC(=O)[C@H](O)[C@@H](NC(=O)CCC4=[N+]5C(=Cc6c(C)cc(C)n6[B-]5(F)F)C=C4)c4ccccc4)C(C)=C1C3(C)C)[C@]1(OC(C)=O)CO[C@@H]1C[C@@H]2O` (stereo partly specified), the Activity entry was “substrate [+]”.
